From the supplement of paper PMC11061612

Legend:
[1] = test system: PCI-30 (Head and Neck Carcinoma); test: Bliss excess, mean over the matrix (fraction); higher = more synergy
Method in brief: (§1)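 Bliss excess equals the observed combination effect minus the expected value EA + EB − EA·EB, where EA and EB are the effects of each agent alone. Combination Emax is the second-highest inhibition within the matrix. Inhibition was scaled from CellTiter-Glo 2.0 luminescence, with 0 set by vehicle wells and 1 by blank wells, after 72 hours of two-drug dosing of cells plated in 1536-well plates.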

[2] = test system: CAL-51 (Breast Carcinoma); test: as above
Method in brief: as §1

[3] = test system: OVCAR-8 (Ovarian Carcinoma); test: as above
Method in brief: as §1

[4] = test system: RT-112 (Bladder Carcinoma); test: as above
Method in brief: as §1

[5] = test system: CAPAN-1 (Pancreatic Carcinoma); test: combination Emax (second highest fraction inhibited in the dose matrix, 72 h); higher = more inhibition; extreme values may be limits of the assay
Method in brief: as §1

[6] = test system: SW1271 (Small Cell Lung Carcinoma); test: as above
Method in brief: as §1

[7] = test system: CAL-54 (Kidney Carcinoma); test: as above
Method in brief: as §1

[8] = test system: LB771-HNC (Head and Neck Carcinoma); test: as above
Method in brief: as §1

[9] = test system: LU-139 (Small Cell Lung Carcinoma); test: as above
Method in brief: as §1

[10] = test system: HCC-15 (Squamous Cell Lung Carcinoma); test: as above
Method in brief: as §1

[11] = test system: SK-OV-3 (Ovarian Carcinoma); test: as above
Method in brief: as §1

[12] = test system: NCI-H28 (Mesothelioma); test: as above
Method in brief: as §1

[13] = test system: MHH-PREB-1 (B-Cell Non-Hodgkin's Lymphoma); test: as above
Method in brief: as §1

[14] = test system: HARA (Squamous Cell Lung Carcinoma); test: as above
Method in brief: as §1

[15] = test system: NB14 (Neuroblastoma); test: as above
Method in brief: as §1

[16] = test system: HMV-II (Melanoma); test: as above
Method in brief: as §1

[17] = test system: NCI-H69 (Small Cell Lung Carcinoma); test: as above
Method in brief: as §1

[18] = test system: RPMI-6666 (Non-Cancerous); test: as above
Method in brief: as §1

[19] = test system: COLO-829 (Melanoma); test: as above
Method in brief: as §1

[20] = test system: KARPAS-231 (B-Cell Non-Hodgkin's Lymphoma); test: as above
Method in brief: as §1

Structure (SMILES)	Bliss excess [1]	Bliss excess [2]	Bliss excess [3]	Bliss excess [4]	combination Emax [5]	combination Emax [6]	combination Emax [7]	combination Emax [8]	combination Emax [9]	combination Emax [10]	combination Emax [11]	combination Emax [12]	combination Emax [13]	combination Emax [14]	combination Emax [15]	combination Emax [16]	combination Emax [17]	combination Emax [18]	combination Emax [19]	combination Emax [20]
Cc1cc2ncnn2cc1Nc1ncc2c(n1)n(C1CCOCC1)c(=O)n2C [AZD7648] + C=CCn1c(=O)c2cnc(Nc3ccc(N4CCN(C)CC4)cc3)nc2n1-c1cccc(C(C)(C)O)n1 [AZD1775] (first compound max 10 µM, partner max 1 µM)	0.0419	-0.05	0.0102	0.0239	0.5	0.633	0.755	0.455	0.615	0.345	0.535	0.42	0.823	0.797	0.998	0.521	0.389	0.892	0.214	0.979
NC1(C(=O)N[C@@H](CCO)c2ccc(Cl)cc2)CCN(c2ncnc3[nH]ccc23)CC1 [Capivasertib] + CCN(CCO)CCCOc1ccc2c(Nc3cc(CC(=O)Nc4cccc(F)c4)[nH]n3)ncnc2c1 [AZD2811] (first compound max 10 µM, 7x7, partner max 1 µM)	-0.0595	0.0519	0.001	-0.0152	0.225	0.315	0.545	0.489	0.293	0.773	0.394	0.416	0.257	0.679	0.938	0.445	0.877	0.675	0.35	0.551
Cc1c2c(nn1C)CSCc1cc(n(C)n1)CSc1cc(c3ccccc3c1)OCCCc1c(C(=O)O)n(C)c3c-2c(Cl)ccc13 [AZD5991] + C[C@@H]1COCCN1C2=NC(=NC(=C2)C3(CC3)[S@](=N)(=O)C)C4=C5C=CNC5=NC=C4 [AZD6738] (first compound max 1 µM, 7x7, partner max 10 µM)	0.0378	0.0585	0.001	0.0348	0.488	0.604	0.706	0.806	0.446	0.297	0.556	0.533	0.729	0.776	0.989	0.424	0.335	0.889	0.532	1
COc1cc2ncnc(Nc3ccc(F)c(Cl)c3)c2cc1OCCCN1CCOCC1 [Gefitinib] + CC(C)n1c(=O)n(C)c2cnc3cc(F)c(-c4ccc(OCCCN5CCCCC5)nc4)cc3c21 [AZD1390] (first compound max 10 µM, 7x7, partner max 0.3 µM)	-0.0871	-0.0485	-0.0633	-0.0548	0.253	0.188	0.486	0.0839	0.0288	0.0725	0.285	0.346	0.123	0.298	0.128	0.411	0.286	0.615	0.143	0.24
CC1(C)CCC(CN2CCN(c3ccc(C(=O)NS(=O)(=O)c4ccc(NCC5CCOCC5)c([N+](=O)[O-])c4)c(Oc4cnc5[nH]ccc5c4)c3)CC2)=C(c2ccc(Cl)cc2)C1 [Venetoclax] + Cn1cnc2c(F)c(Nc3ccc(Br)cc3Cl)c(C(=O)NOCCO)cc21 [Selumetinib] (first compound max 1 µM, 7x7, partner max 3 µM)	-0.0429	-0.0088	-0.0373	0.0554	0.314	0.432	0.205	0.132	0.307	0.438	0.137	0.142	0.147	0.617	0.974	0.779	0.302	0.959	0.426	0.812
COc1nnc2ccc(N3CCC(c4ccc(OCCN5CCN(C)C(=O)[C@H]5C)cc4)CC3)nn12 [AZD5153] + Cn1cnc2c(F)c(Nc3ccc(Br)cc3Cl)c(C(=O)NOCCO)cc21 [Selumetinib] (first compound max 1 µM, 7x7, partner max 10 µM)	-0.0426	0.0099	0.0159	0.0423	0.664	0.676	0.765	0.475	0.912	0.693	0.404	0.502	0.459	0.708	0.892	0.927	0.543	0.692	0.663	0
COc1cccc(OCCCN)c1-c1cc(Nc2cnc(C#N)cn2)n[nH]1 [Prexasertib] + C=CCn1c(=O)c2cnc(Nc3ccc(N4CCN(C)CC4)cc3)nc2n1-c1cccc(C(C)(C)O)n1 [AZD1775] (first compound max 1 µM, partner max 1 µM)	0.0954	0.101	0.0937	0.119	0.577	0.699	0.868	0.622	0.741	0.542	0.875	0.659	0.977	0.984	1	0.708	0.955	0.955	0.237	0.989
